Experimental findings from ChEMBL document CHEMBL1221198 (Nat Chem Biol, 2007) are described below.

Test [1] concerns HEK293. Nature of the test: Inhibition of RSK-mediated rpS6 phosphorylation at Ser235 residues in human PMA-stimulated HEK 293 cells at 30 uM after 1 hr by Western blotting. The class given is cell-based.
The subject of test [2] is HEK293. Nature of the test: Inhibition of RSK-mediated rpS6 phosphorylation at Ser236 residues in human PMA-stimulated HEK 293 cells at 30 uM after 1 hr by Western blotting. The format is cell-based. For orientation: Immunoblotting shows a protein as a band on a membrane.
The target of test [3] is T1, Ribosomal protein S6 kinase alpha-3 (Homo sapiens, UniProt P51812). As to the kind of experiment: Inhibition of PMA-stimulated RSK2 phosphorylation in HEK293 cells after 1 hr by Western blotting analysis. The class given is cell-based.
T1 sequence (P51812 whole entry): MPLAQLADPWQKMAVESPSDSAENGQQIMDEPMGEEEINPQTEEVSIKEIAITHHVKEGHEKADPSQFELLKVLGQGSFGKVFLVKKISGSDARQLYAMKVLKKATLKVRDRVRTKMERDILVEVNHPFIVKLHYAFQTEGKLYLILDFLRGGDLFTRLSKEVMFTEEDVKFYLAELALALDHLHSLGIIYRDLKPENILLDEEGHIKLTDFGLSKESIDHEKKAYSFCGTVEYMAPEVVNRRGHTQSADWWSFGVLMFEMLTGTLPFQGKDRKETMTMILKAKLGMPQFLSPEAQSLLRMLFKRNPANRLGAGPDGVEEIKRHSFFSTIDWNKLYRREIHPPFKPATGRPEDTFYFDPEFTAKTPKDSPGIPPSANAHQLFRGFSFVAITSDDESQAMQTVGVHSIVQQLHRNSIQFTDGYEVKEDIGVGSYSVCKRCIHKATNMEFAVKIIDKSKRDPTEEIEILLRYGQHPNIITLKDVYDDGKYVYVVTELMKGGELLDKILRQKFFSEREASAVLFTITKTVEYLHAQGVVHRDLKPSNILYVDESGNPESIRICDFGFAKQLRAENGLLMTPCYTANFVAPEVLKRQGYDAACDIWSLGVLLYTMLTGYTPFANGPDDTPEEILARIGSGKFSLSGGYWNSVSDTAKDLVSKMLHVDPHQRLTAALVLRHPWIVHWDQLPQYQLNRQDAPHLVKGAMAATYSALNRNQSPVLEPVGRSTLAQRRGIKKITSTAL
Test [4] deals with T1, Ribosomal protein S6 kinase alpha-3. Nature of the test: Inhibition of His6-tagged RSK2 C-terminal domian expressed in Escherichia coli after 30 mins.

For orientation: inhibition means the percentage by which the read-out fell short of the control. Higher therefore signals a strong effect. As for `CO[C@H]1C[C@@H]2CC[C@@H](C)[C@@](O)(O2)C(=O)C(=O)N2CCCC[C@H]2C(=O)O[C@H]([C@H](C)C[C@@H]2CC[C@@H](O)[C@H](OC)C2)CC(=O)[C@H](C)/C=C(\C)[C@@H](O)[C@@H](OC)C(=O)[C@H](C)C[C@H](C)/C=C/C=C/C=C/1C`, the inhibition in the test with HEK293 [1] and with HEK293 [2] was 76% throughout.

The term EC50 denotes the concentration needed to bring the measured effect to its halfway point. Read a low EC50 as higher potency in that assay. Broadly, the IC50 is the point on the concentration scale where inhibition reaches its midpoint. In turn, `CC1=CC(C)=[N+]2C1=Cc1ccc(CCC(=O)NCCCCCC(=O)NCCCCNC(=O)OCCCn3c(C(=O)CF)c(-c4ccc(C)cc4)c4c(N)ncnc43)n1[B-]2(F)F` returned a concentration giving a half-maximal response (EC50) in test [3] of 10 µM. In test [4], this compound had a concentration for half-maximal inhibition (IC50) of 1.7 µM.
